According to patent publication US10577406B2, “FKBP-L polypeptides and uses in angiogenesis-mediated disorders” (ALMAC DISCOVERY LIMITED, priority 2006, dated 2020):

How the values were obtained:
[1] = test system: MDA-231 (breast; CD44+ve); test: cell invasion in a modified Boyden chamber system, MDA-231; assay type: cell-based; conditions: 24 h
Protocol: (§1) Twelve well plate polycarbonate inserts were divided into two groups with half remaining uncoated and half coated with 100 μg/cm^2 of Matrigel. The coated inserts were allowed to dry overnight at room temperature in a sterile tissue culture hood. The required cell line; HMEC-1, PC3 or MDA231 was trypsinised, re-suspended in fresh medium and the cell number calculated. 5×10^5 cells, in a total volume of 500 μl, were added to the insert (top chamber) and 1.5 ml of complete medium added to the bottom chamber of the plate as a stimulus for invasion. FKBP-L 24mer was added to both the upper and lower chamber of the plate at the required concentration in the experimental wells. The plate was incubated for 24 h (PC3 or MDA231) or 48 h (HMEC-1).
(§2) The inserts were carefully removed from their 12 well plate and inserts without Matrigel coating were placed directly into Carnoys fixative. […]
(§3) The polycarbonate inserts were cut from the holders and placed on to mounting medium on a microscope slide. […] The slides were stored at 4° C. until analysed.
(§4) Ten images from each insert were captured and the number of fluorescent cells per image was analysed by Lucia Imaging software. The ratio of cells visible on non-coated inserts compared to cells visible on Matrigel coated inserts was expressed as % invasion. […]

[2] = test system: HMEC-1; test: cell adhesion assay on Matrigel (MTT readout); assay type: cell-based, Human; conditions: 1 h at 37° C.
Protocol: A 96-well plate was pre-coated with a thin layer of Matrigel which was allowed to set overnight. The plate wells were blocked with 0.5% BSA for 1 h at 37° C. in a 95% air/5% CO2 incubator. Human microvascular endothelial cells (HMEC-1) were trypsinised and re-suspended in fresh medium and seeded at a density of 20000 cells per well. The plates were placed at 4° C. for 10 min to allow the cells to sediment to the bottom of the wells. The required amount of medium supplemented with the FKBP-L 24mer was added to each well and the plate incubated for 1 h at 37° C. The excess medium and unattached cells were removed and the wells washed three times with sterile PBS. The wells were supplemented with fresh medium and MTT added (5 mgml^−1). The plate was incubated for a further 4 h at 37° C. DMSO was added to each well to solubilise the MTT to formazen and the plate read at 540nm, with the relative absorbance of control wells compared to FBKP-L 24mer-supplemented wells.

[3] = test system: mouse endothelial cells, 2H-11; test: wound scrape assay in a mouse endothelial cell line; assay type: cell-based; conditions: 10^−14-10^−7 M; 7 hours
Protocol: This experiment evaluated the ability of the FKBP-L 24mer to inhibit endothelial cell migration over a dose ranges spanning from 10^−14 M to 10^−7 M. The in vitro migration assay used in these studies is a modified version of the method described by Ashton et al (1999) see supra. In this assay mouse endothelial cells, 2H-11, were obtained from the American Tissue Culture Collection and were grown in D-MEM containing 10% FCS. They were plated into individual chambers on a glass slide and grown to 90% confluence overnight. The medium was removed and the monolayer wounded. The monolayer was re-supplemented with fresh medium and the required volume of the FKBPL 24mer peptide was added to achieve a dose range from 10^−14-10^−7 M. The monolayers were incubated for 7 hours and then fixed in 4% PBS buffered paraformaldehyde.
The extent of “wound” closure was blindly assessed microscopically by an independent investigator and quantified using a calibrated eyepiece graticule (1 mm/100 μm graduation) at 20× magnification (Olympus BX 50). The extent of closure in the FKBP-L 24mer treated slides was compared to time matched sham treated controls and the % inhibition of wound closure compared to time matched controls calculated.

[4] = test system: HMEC-1 (microvascular endothelial cells; CD44+ve); test: cell invasion in a modified Boyden chamber system, HMEC-1; assay type: cell-based, Human; conditions: 48 h
Protocol: as §1, §2, §3, §4

[5] = test system: PC3 (Prostate; CD44+ve); test: cell invasion in a modified Boyden chamber system, PC3; assay type: cell-based; conditions: 24 h
Protocol: as §1, §2, §3, §4

[6] = test system: HMEC-1 cells; test: MTT assay of cell viability/proliferation; conditions: 24mer 10^−5-10^−10M, 1-57mer 10^−9M and 10^−10M; 24 hours and 48 hours
Protocol: (§5) An MTT assay was used to measure cell viability/proliferation.
(§6) An MTT assay was used to measure cell viability and/or proliferation. Briefly, HMEC-1 cells were seeded (2.5×10^3) in 96 well plates and allowed to attach for 5 h. The cells were treated with FKBP-L 24mer (SEQ ID NO: 10) (10^−5-10^−10M), 1-57mer (SEQ ID NO: 6) (10^−9M and 10^−10M) or medium (control).
(§7) Post incubation the cells were exposed to a 5 mgml^−1 solution of 3-(-4,5-dimethylthiazol-2-yl) 2,5 diphenyl tetrazolium (MTT) for 4 h. The cells were aspirated and 200 μl of DMSO added to reduce the salt and induce a colour change.

[7] = test system: DU145 (prostate tumor cell line; CD44 −ve); test: tumor cell migration, wound closure assay, DU145; assay type: cell-based, human; conditions: 24 h
Protocol: The in vitro migration assay used in these studies is a modified version of the method described by Ashton et al. (1999) see supra. PC3 (prostate tumor cell line; CD44 positive; CD44 +ve), MDA231 (breast tumor cell line; CD44 +ve), HT29 (Colorectal tumor cell line; CD44 +ve), MCF-7 (breast tumor cell line; CD44 negative; CD44 −ve) and DU145 (prostate tumor cell line; CD44 −ve) were plated into individual chambers on a glass slide and grown to 90% confluence overnight. The medium was removed and the monolayers wounded. […] The monolayers were incubated for 24 h and then fixed in 4% PBS buffered paraformaldehyde.
The extent of “wound” closure was blindly assessed microscopically by an independent investigator and quantified using a calibrated eyepiece graticule (1 mm/100 μm graduation) at 20× magnification (Olympus BX 50). The extent of closure in the FKBP-L treated slides was compared to time matched sham treated controls and the % inhibition of wound closure compared to time matched controls calculated.

[8] = test system: HT29 (Colorectal tumor cell line; CD44 +ve); test: tumor cell migration, wound closure assay, HT29; assay type: cell-based; conditions: 24 hours
Protocol: In these experiments, the effect of recombinant FKBP-L on tumor cell migration was assessed. The in vitro migration assay used in these studies is a modified version of the method described by Ashton et al (1999) see supra. PC3, MDA231, and HT29 tumor cells were plated into individual chambers on a glass slide and grown to 90% confluence overnight. The medium was removed and the monolayers wounded. The monolayer was re-supplemented with fresh medium and the required volume of His-tagged recombinant FKBP-L protein (SEQ ID NO: 1) was added to give the final concentrations shown. The monolayers were incubated for 24 hours and then fixed in 4% PBS buffered paraformaldehyde.
The extent of “wound” closure was blindly assessed microscopically by an independent investigator and quantified using a calibrated eyepiece graticule (1 mm/100 μm graduation) at 20× magnification (Olympus BX 50). The extent of closure in the FKBP-L treated slides was compared to time matched sham-treated controls and the percent inhibition of wound closure compared to time matched controls calculated. […]
The extent of “wound” closure was blindly assessed microscopically by an independent investigator and quantified using a calibrated eyepiece graticule (1 mm/100 μm graduation) at 20× magnification (Olympus BX 50). […]

[9] = test system: HMEC-1 cells
Protocol: as §5, §6, §7

Molecule: H-QIRQQPRDPPTETLELEVSPDPAS-OH [FKBP-L 24mer]
- effect on cell invasion through Matrigel [1]: potent inhibitor
- effect on cell adhesion [2]: potent inhibitor of HMEC-1 adhesion
- effect on wound closure in mouse endothelial cells [3]: inhibited wound closure
- effect on cell invasion through Matrigel [4]: potent inhibitor
- effect on cell invasion through Matrigel [5]: potent inhibitor
- effect on proliferation of HMEC-1 cells compared to time-matched controls [6]: neither of the peptides had any significant effect

B1: full length recombinant FKBP-L: recombinant full length his-tagged FKBP-L protein (SEQ ID NO: 1) expressed in BL21 (DE3) (protein, listed as Homo sapiens)
chain: MRGSHHHHHHGMASMTGGQQMGRDLYDDDDKDRWGSMETPPVNTIGEKDTSQPQQEWEKNLRENLDSVIQIRQQPRDPPTETLELEVSPDPASQILEHTQGAEKLVAELEGDSHKSHGSTSQMPEALQASDLWYCPDGSFVKKIVIRGHGLDKPKLGSCCRVLALGFPFGSGPPEGWTELTMGVGPWREETWGELIEKCLESMCQGEEAELQLPGHTGPPVGLTLASFTQGRDSWELETSEKEALAREERARGTELFRAGNPEGAARCYGRALRLLLTLPPPGPPERTVLHANLAACQLLLGQPQLAAQSCDRVLEREPGHLKALYRRGVAQAALGNLEKATADLKKVLAIDPKNRAAQEELGKVVIQGKNQDAGLAQGLRKMFG
modifications: His tag
- effect on tumor cell migration [7]: not in CD44 −ve tumor cell lines
- effect on tumor cell migration [8]: inhibits tumor cell migration in a dose-dependent manner
- effect on proliferation of HMEC-1 cells compared to time matched controls [9]: no significant effect
